From publication PMC5269379 (Organic letters, 2016)
Entries after “also recorded” stand apart in the source; their conditions may differ.

Experiments:
[1] = test system: L. lactis 481; format: cell-based, Lactococcus lactis; conditions: for individual MIC: peptide alone; for individual MIC / combined with CylLL″ MIC: L. lactis 481; for combined with CylLL″ MIC: concentration of each component
[2] = test system: rabbit red blood cells; assay: Synergistic hemolytic activity in combination with CylLL″; format: cell-based; conditions: Figure S6
[3] = test system: Lactococcus lactis HP and L. lactis CNRZ 481; assay: Antimicrobial activity assay; format: cell-based; conditions: in combination with CylLL″; Figures S2, S5

Substance | individual MIC [1] | combined with CylLL″ MIC ([1]; combined with CylLL″) | hemolytic activity (in words) [2] | antimicrobial activity (in words) [3] | fold increase of MIC in liquid culture ([1]; combined with CylLL″, liquid culture)
cytolysin L [CylLL″, reference compound] | >50 µM |  |  |  | 
cytolysin S [CylLS″, reference compound] | >50 µM | 0.05 µM | very similar hemolytic activity |  | 
CylLS″-Dhb2Dha (LL-A ring, DL-B ring) [synthetic 12] | >50 µM | 0.1 µM |  | identical antimicrobial activity | 
CylLS″-Dhb2Dha (DL-A ring, DL-B ring) [compound 11] | >50 µM | 1.0 µM | no decrease of hemolytic activity | decreased antimicrobial activity; also recorded: markedly smaller zone of growth inhibition | 10 fold
CylLS″-Dhb2Dha [biosynthetic 12] | >50 µM | 0.1 µM | very similar hemolytic activity | very similar antimicrobial activity | 
